{
  "source": "patent US5098932A",
  "about": "“Cyclic ether derivatives” (Imperial Chemical Industries PLC, ICI Pharma, priority 1988, dated 1992)",
  "key": {"cyclooxygenase (TxB2)": {"test_system": "cyclooxygenase (TxB2)", "assay": "In vitro heparinised human blood assay, A23187 challenge, TxB2 radioimmunoassay, test b)", "format": "cell-based", "method": "(§1) b) An in vitro assay system involving incubating a test compound with heparinised human blood, prior to challenge with the calcium ionophore A23187 and then indirectly measuring the inhibitory effects on 5-LO by assaying the amount of LTB4 using the specific radioimmunoassay described by Carey and Forder (F. Carey and R. A. Forder, Brit. J. Pharmacol. 1985, 84, 34P) which involves the use of a protein-LTB4 conjugate produced using the procedure of Young et alia (Prostaglandins, 1983, 26(4),605-613). The effects of a test compound on the enzyme cyclooxygenase (which is involved in the alternative metabolic pathway for arachidonic acid and gives rise to prostaglandins, thromboxanes and related metabolites) may be measured at the same time using the specific radioimmunoassay for thromboxane B2 (T×B2) described by Carey and Forder (see above). This test provides an indication of the effects of a test compound against 5-LO and also cyclooxygenase in the presence of blood cells and proteins. It permits the selectivity of the inhibitory effect on 5-LO or cyclooxygenase to be assessed."}, "5-LO (LTB4)": {"test_system": "5-LO (LTB4)", "assay": "In vitro heparinised human blood assay, A23187 challenge, LTB4 radioimmunoassay, test b)", "format": "cell-based", "method": "as §1"}},
  "data": [
    {"smiles": "CCC1(c2cccc(OCc3ccc4ccccc4c3)c2)COC(C)(C)O1", "note": "(centres unmarked) [4-ethyl-2,2-dimethyl-4-[3-(naphth-2-ylmethoxy)phenyl]-1,3-dioxolane]", "values": [
      {"measurement": "IC50", "setting": "cyclooxygenase (TxB2)", "result": "> 40000", "unit": "nM"},
      {"measurement": "IC50", "setting": "5-LO (LTB4)", "result": 100, "unit": "nM"}
    ]}
  ]
}
